Key:
URAT1 [1] = biological target: T1, URAT1 (Homo sapiens, UniProt Q96S37); assay: URAT1 inhibitor activity, MDCK cells; format: cell-based; set-up: host or cells: MDCK; settings: URAT1 inhibition
T1 sequence (Q96S37 1-553): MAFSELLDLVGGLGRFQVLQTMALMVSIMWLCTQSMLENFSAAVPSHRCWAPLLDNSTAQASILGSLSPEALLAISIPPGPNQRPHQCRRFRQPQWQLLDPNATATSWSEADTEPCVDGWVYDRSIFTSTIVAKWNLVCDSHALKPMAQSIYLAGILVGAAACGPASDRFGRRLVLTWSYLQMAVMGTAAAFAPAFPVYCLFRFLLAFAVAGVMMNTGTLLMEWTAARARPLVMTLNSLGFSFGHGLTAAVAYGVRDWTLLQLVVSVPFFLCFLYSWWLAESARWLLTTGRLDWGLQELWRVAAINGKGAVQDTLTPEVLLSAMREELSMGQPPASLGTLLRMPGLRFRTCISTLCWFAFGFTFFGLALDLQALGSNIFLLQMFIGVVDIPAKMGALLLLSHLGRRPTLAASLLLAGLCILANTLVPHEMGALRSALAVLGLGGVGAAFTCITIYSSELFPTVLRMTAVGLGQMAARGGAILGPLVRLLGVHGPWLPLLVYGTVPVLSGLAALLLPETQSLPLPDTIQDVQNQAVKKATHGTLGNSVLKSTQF

URAT1 [2] = biological target: T1, URAT1; assay: URAT1 inhibitor activity, 14C-uric acid uptake in HEK293-URAT1 cells; format: cell-based; settings: URAT1 inhibition, 14C-Uric acid 5.0 μmol/L, 2 min
Procedure: The potency of the compounds of formula (I) as inhibitors of the URAT1 was determined as follow.
HEK293-URAT1 cell Lines were donated by Japan Fuji Biomedical Research Institute. Negative control cell of HEK293 (MOCK cells) which was transfected with pcDNA3.1 empty vector. HEK293-URAT1 cell lines and MOCK cell lines were cultured in complete growth medium consisting of DMEM supplemented with 10% FBS, penicillin and streptomycin.
Preparation of working solution: Each stock solutions was diluted to different concentrations (6, 20, 60, 200 and 600 μmol/L) with DMSO as 200× working solution, which was then diluted to 2× compound working solution with HBSS (Cl^− free) buffer. Radiolabeled substrate ^14C-Uric acid solution was diluted with HBSS (Cl^− free) buffer to obtain 2× working solution which was mixed with an equal volume of 2× compound working solution to obtain the mixture of radiolabeled substrate and compound working solution.
HER293-URAT1 and MOCK cells were seeded onto 24-well plates at the density of 1.5×10^6 cells per well. The cells were incubated at 37° C., 5% CO2 overnight. After cultured for approximately 2 to 3 days, cells were used for the experiments. The culture medium were removed from the wells, and cells were washed with HBSS (Cl^− free) and incubated in 37° C. HBSS (Cl^− free) for 10 min. HBSS was replaced with 500 μL of the mixture of radiolabeled substrate and compound working solution. The final concentration of ^14C-Uric acid in the assay was 5.0 μmol/L. Plates were incubated at 37° C., 5% CO2 for 2 min, and the reaction was stopped by the addition of pre-chilled HBSS (Cl^− free) by washing three times. 400 μL, NaOH (0.1 mmol/L) was added to lyse the cells and the cell lysate was collected to scintillation vials, and 3 ml scintillant (Aquasol-2, PerkinElmer) was added and after mixing completely, the radioactivity was counted by Tri-Carb 2910TR liquid scintillation counter. Each concentration of compounds, positive control and negative control were repeated in two wells (n=2). Inhibition % data were calculated using the formula:
Inhibition=[100×(U−U0)/(Uc−U0)]%, and analyzed using Prism5 software. • U0: Average of signals of MOCK cells; • Uc: Average of signals of radiolabeled substrate. The half inhibition concentration of the tested compounds to URAT1 were analyzed using Prism 5 software.

CYP2C9 = biological target: T2, CYP2C9 (Homo sapiens, UniProt P11712); assay: CYP inhibition assay in human liver microsomes; format: in vitro ADME; settings: human liver microsomes 0.200 mg/mL, 37° C. for 10 minutes
T2 construct: conducted using human liver microsomes; from tissue; host or cells: human liver microsomes
Procedure: The CYP inhibition assay was conducted using human liver microsomes at 0.200 mg/mL with a marker substrate for CYP2C9. The substrate concentrations employed were similar to published Michaelis-Menten constants (Km) for each of the respective reactions. The test compounds were added at 8 concentrations (0, 0.0500, 0.150, 0.500, 1.50, 5.00, 15.0, and 50.0 μM). A known inhibitor for the isozyme, at a single concentration (3.00 μM) in duplicates, was selected as the positive control. The reaction in the presence of the organic solvent instead of test compounds served as vehicle control. The final content of organic solvent in all the reactions was up to 0.5% DMSO and 0.5% methanol.
Reactions were initiated by adding NADPH followed by incubation at 37° C. for 10 minutes. And reactions were terminated by adding a 2-fold volume ice-cold acetonitrile with internal standards. Samples were processed and analyzed by liquid chromatography tandem mass spectrometry (LC-MS/MS).The results are given in the Table 4.

T2 sequence (P11712 whole entry): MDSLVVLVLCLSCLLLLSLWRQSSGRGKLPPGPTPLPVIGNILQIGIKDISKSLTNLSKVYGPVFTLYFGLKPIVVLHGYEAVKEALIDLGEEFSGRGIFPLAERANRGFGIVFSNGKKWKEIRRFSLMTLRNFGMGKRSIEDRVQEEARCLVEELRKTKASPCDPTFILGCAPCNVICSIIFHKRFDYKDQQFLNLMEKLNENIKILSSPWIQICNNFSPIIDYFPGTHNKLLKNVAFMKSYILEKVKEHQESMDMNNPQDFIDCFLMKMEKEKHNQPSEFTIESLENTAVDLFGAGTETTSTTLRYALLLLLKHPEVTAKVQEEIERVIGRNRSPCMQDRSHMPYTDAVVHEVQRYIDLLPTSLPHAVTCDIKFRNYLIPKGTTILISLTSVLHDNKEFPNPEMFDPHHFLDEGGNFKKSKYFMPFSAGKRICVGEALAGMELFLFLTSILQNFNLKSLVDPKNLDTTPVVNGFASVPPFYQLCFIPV

Row | Compound | IC50 (URAT1 [1]) [µM] | IC50 (URAT1 [2]) [µM] | IC50 (CYP2C9) [µM]
1 | Cc1nn(C)c2c1OC(C)(C)CN2C(=O)c1cc(Br)c(O)c(Br)c1 [Example 13, (3,5-dibromo-4-hydroxyphenyl)(1,3,5,5-tetramethyl-5,6-dihydropyrazolo[4,3-b][1,4]oxazin-7(1H)-yl)methanone] | 0.084 |  | 
2 | Cn1ncc2c1N(C(=O)c1cc(Br)c(O)c(Br)c1)CC(C)(C)O2 [Example 12, (3,5-dibromo-4-hydroxyphenyl)(1,5,5-trimethyl-5,6-dihydropyrazolo[4,3-b] [1,4]oxazin-7(1H)-yl)methanone] | 0.08 |  | 
3 | O=C(c1cc(Br)c(O)c(Br)c1)N1CCOc2cn[nH]c21 [Example 3, (3,5-dibromo-4-hydroxyphenyl)(5,6-dihydropyrazolo[4,3-b][1,4]oxazin-7(1H)-yl)methanone] |  | 0.13 | 
4 | Cn1ncc2c1N(C(=O)c1cc(Cl)c(O)c(Cl)c1)CCO2 [Example 14, (3,5-dichloro-4-hydroxyphenyl)(1-methyl-5,6-dihydropyrazolo[4,3-b][1,4]oxazin-7(1H)-yl)methanone] | 0.252 |  | 
5 | C[C@H]1CN(C(=O)c2cc(Br)c(O)c(Br)c2)c2c(cnn2C)O1 [Example 5, (S)-(3,5-dibromo-4-hydroxyphenyl) (1,5-dimethyl-5,6-dihydropyrazolo[4,3-b][1,4]oxazin-7(1H)-yl)methanone] | 0.093 | 0.04 | 18.9
6 | C[C@@H]1CN(C(=O)c2cc(Br)c(O)c(Br)c2)c2c(cnn2C)O1 [Example 1, (R)-(3,5-dibromo-4-hydroxyphenyl)(1,5-dimethyl-5,6-dihydropyrazolo[4,3-b][1,4]oxazin-7(1H)-yl)methanone] | 0.025 | 0.062 | 15.5
7 | Cc1nn(C)c2c1O[C@@H](C)CN2C(=O)c1cc(Br)c(O)c(Br)c1 [Example 15, (S)-(3,5-dibromo-4-hydroxyphenyl) (1,3,5-trimethyl-5,6-dihydropyrazolo[4,3-b][1,4]oxazin-7(1H)-yl)methanone] | 0.126 |  | 
8 | Cn1ncc2c1N(C(=O)c1cc(Br)c(O)c(Br)c1)CCO2 [Example 2, (3,5-Dibromo-4-hydroxyphenyl)(1-methyl-5,6-dihydropyrazolo[4,3-b][1,4]oxazin-7(1H)-yl)methanone] | 0.029 | 0.069 | > 50
9 | Cn1ncc2c1N(C(=O)c1cc(Br)c(O)c(Br)c1)CCC2 [Example 11, (3,5-dibromo-4-hydroxyphenyl)(1-methyl-1,4,5,6-tetrahydro-7H-pyrazolo [3,4-b]pyridin-7-yl)methanone] |  | 0.1 | 
10 | Cc1nn(C)c2c1OCCN2C(=O)c1cc(Br)c(O)c(Br)c1 [Example 10, (3,5-dibromo-4-hydroxyphenyl)(1,3-dimethyl-5,6-dihydropyrazolo[4,3-b] [1,4]oxazin-7(1H)-yl)methanone] | 0.085 | < 0.03 | 16.2

Now from value to compound:

Row | IC50 (URAT1 [1]) [µM] | IC50 (URAT1 [2]) [µM] | IC50 (CYP2C9) [µM] | Compound
11 | 0.189 |  |  | Cc1nn(C)c2c1SCCN2C(=O)c1cc(Br)c(O)c(Br)c1 [Example 23, (3,5-dibromo-4-hydroxyphenyl)(1,3-dimethyl-5,6-dihydropyrazolo[4,3-b][1,4]thiazin-7(1H)-yl)methanone]
12 |  | 0.339 |  | Cn1cc2c(n1)N(C(=O)c1cc(Br)c(O)c(Br)c1)CCO2 [Example 19, (3,5-dibromo-4-hydroxyphenyl)(2-methyl-5,6-dihydropyrazolo[4,3-b][1,4]oxazin-7(2H)-yl)methanone]
13 |  | 0.235 |  | O=C(c1cc(Br)c(O)c(Br)c1)N1CCOc2[nH]ncc21 [Example 20, (3,5-dibromo-4-hydroxyphenyl)(5,6-dihydropyrazolo[3,4-b][1,4]oxazin-4(1H)-yl)methanone]
14 |  | 0.297 |  | Cn1ncc2c1OCCN2C(=O)c1cc(Br)c(O)c(Br)c1 [Example 21, (3,5-dibromo-4-hydroxyphenyl)(1-methyl-5,6-dihydropyrazolo[3,4-b][1,4]oxazin-4(1H)-yl)methanone]
15 | 0.037 |  | 16 | Cc1nn(C)c2c1O[C@H](C)CN2C(=O)c1cc(Br)c(O)c(Br)c1 [Example 18]
16 | 0.048 |  | 4.25 | Cn1ncc2c1N(C(=O)c1cc(Br)c(O)c(Br)c1)CC1(CC1)O2 [Example 16, (3,5-dibromo-4-hydroxyphenyl)(1′-methyl-1′H-spiro[cyclopropane-1,5′-pyrazolo[4,3-b][1,4]oxazin]-7′(6′H)-yl) methanone]
17 | 0.06 |  | 10.4 | Cc1nn(C)c2c1OC1(CC1)CN2C(=O)c1cc(Br)c(O)c(Br)c1 [Example 17, (3,5-dibromo-4-hydroxyphenyl)(1′,3′-dimethyl-1′H-spiro[cyclopropane-1,5′-pyrazolo[4,3-b][1,4]oxazin]-7′(6′H)-yl)methanone]
